# Reference: US20260071179A1, “PRODUCTION METHOD OF NERVE CELLS DAMAGED BY OXIDATIVE STRESS AND APPLICATIONS THEREOF” (FUJIFILM Corporation, priority 2023, published 2026)
# Test system: nerve cells (considered to be cortical excitatory neurons) produced by forcibly expressing the Ngn2 genes from the iPS cells
# Assay: Evaluation of compound for oxidative stress-induced neuronal damage (neurite length, IncuCyte S3 Neurotrack)
# Assay type: cell-based, human
# Details: same method as in Test Example 7, −AO culture medium (Stress(+)), FIG. 19
# Experimental: (§1) A solution obtained by diluting iMatrix-511 silk (Matrixome, 892021) 16.7 times with PBS was added to a 96-well plate (Corning, 356461) coated with PDL at 70 μL/well, and incubated at 37° C. for 3 hours to 72 hours.
# (§2) As a culture medium containing an antioxidant, a culture medium (Stress(−)) in which DMSO was added to a +AO culture medium to a final concentration of 0.1% by volume (v/v) was used, as a culture medium not containing an antioxidant, a culture medium (Stress(+)) in which DMSO was added to a −AO culture medium to a final concentration of 0.1% by volume (v/v), and as the culture medium of the drug evaluation group, a culture medium in which a DMSO-dissolved compound was added to the −AO culture medium to a concentration of 0.1% by volume (v/v) (0.004 to 20 μM) was used.
# The nerve cells (considered to be cortical excitatory neurons) produced by forcibly expressing the Ngn2 genes from the iPS cells was thawed in a warm bath at 37° C. […] After centrifugation, the supernatant was removed, the cells were suspended in 1 mL of the culture medium, and the number of cells was counted. […]
# (§3) The neurite length was quantified using the Neurotrack software (Sartorius, 9600-0010) of IncuCyte S3.
# The effect of edaravone, which was used as a therapeutic drug for ALS, on oxidative stress-induced neuronal damage was evaluated by the same method as in Test Example 7. […]
row,SMILES,reduction in the sum of the neurite lengths
1,CC1=NN(c2ccccc2)C(=O)C1 [edaravone],suppressed in a concentration-dependent manner

# Test system: iCell motor neurons
# Assay: Compound screening using oxidative stress-induced neuronal damage evaluation system (AUC of neurite length over 14 days)
# Assay type: cell-based, human
# Details: iCell motor neurons in −AO culture medium (Stress(+)), 4.7×10^4 cells/cm^2, StemSelect Library compounds, FIG. 18
# Experimental: as §1
# as §2, with “As the compound library, StemSelect Library compounds (Merck, 569774) were used. As” for “As”, “(v/v)” for “(v/v) (0.004 to 20 μM)”
# (§4) Frozen cells (iCell motor neurons, FCDI, C1048) were thawed in a warm bath at 37° C. After melting, the cells were added to a culture medium and centrifuged at 600×g at room temperature for 5 minutes. After centrifugation, the supernatant was removed, the cells were suspended in 1 mL of the culture medium, and the number of cells was counted. Thereafter, the cells were diluted with a culture medium, seeded at 200 μL/well (4.7×10^4 cells/cm^2), and cultured under the conditions of 37° C. and 5% CO2. After culturing, images were acquired by imaging with IncuCyte S3 (Sartorius, Incucyte S3) every 6 hours.
# The neurite length was quantified using the Neurotrack software (Sartorius, 9600-0010) of IncuCyte S3. The area under the curve (AUC) of the curve of the neurite length over time for 14 days was calculated, and the effects of the drug were compared. […] The AUC of the nerve cells (Stress(+) group) (▴) cultured in the culture medium not containing an antioxidant was reduced as compared with the nerve cells (Stress(−) group) (▪) cultured in the culture medium containing an antioxidant.
row,SMILES,reduction in AUC of the curve of the neurite length over time for 14 days
1,CCCC(=O)OCc1ccc(OC(=O)/C=C(C)/C=C/C=C(C)/C=C/C2=C(C)CCCC2(C)C)cc1 [ATRA-BA Hybrid],strongly suppressed
2,Clc1ccccc1CNCC1CCC(CNCc2ccccc2Cl)CC1 (stereo not shown) [AY 9944],strongly suppressed
3,O=C(O)c1ccc2cc(-c3ccc(O)c(C45CC6CC(CC(C6)C4)C5)c3)ccc2c1 [CD437/AHPN],strongly suppressed
4,N=C(N)SCCc1ccc(OCc2ccc([N+](=O)[O-])cc2)cc1 [KB-R7943],strongly suppressed
5,C=CC(C)(C)c1cc(/C=C/C(=O)c2ccc(O)cc2)c(OC)cc1O [Licochalcone-A],strongly suppressed
6,CC[C@H](C)C(=O)O[C@H]1CCC=C2C=C[C@H](C)[C@H](CC[C@@H]3C[C@@H](O)CC(=O)O3)[C@H]21 [Mevastatin],strongly suppressed
7,CC#C[C@]1(O)CC[C@H]2[C@@H]3CCC4=CC(=O)CCC4=C3[C@@H](c3ccc(N(C)C)cc3)C[C@@]21C [Mifepristone],strongly suppressed
8,c1ccc2c(Oc3nc(Nc4ccc(N5CCOCC5)cc4)c4ncn(C5CCCCC5)c4n3)cccc2c1 [Purmorphamine],strongly suppressed
9,c1nc2nc(Nc3ccc(N4CCOCC4)cc3)nc(NC3CCCCC3)c2[nH]1 [Reversine],strongly suppressed
10,O=C(Nc1cccc(NC(=O)c2cccc(O)c2O)c1)c1cccc(O)c1O [Telomerase Inhibitor IX],strongly suppressed
11,C[C@H](NC(=O)Cc1cc(F)cc(F)c1)C(=O)N[C@H]1N=C(c2ccccc2)c2ccccc2N(C)C1=O [γ-Secretase Inhibitor XXI],strongly suppressed

# Test system: iCell motor neurons
# Assay: Evaluation of necroptosis inhibitor for oxidative stress-induced neuronal damage (neurite length, IncuCyte S3 Neurotrack)
# Assay type: cell-based, human
# Details: iCell motor neurons in −AO culture medium (Stress(+)), 4.7×10^4 cells/cm^2, compound 0.01 to 20 μM, FIG. 14
# Experimental: as §1
# as §2, with “(0.01” for “(0.004”
# as §4, with “After culturing, images were acquired by imaging with IncuCyte S3 (Sartorius, Incucyte S3) every 6 hours.” left out
# as §3
row,SMILES,reduction in the sum of the neurite lengths
1,CN1C(=O)C(Cc2c[nH]c3ccccc23)NC1=S (stereo not shown) [Necrostatin-1],suppressed in a concentration-dependent manner
